The assay deals with E. coli ATCC 25922. The assay can be described thus: Resistance development assay. Type of assay: cell-based.

Data on one compound can be found in PMC11363844 (Materials Today Bio, 2024).

`CNC(C)C1CCC(N)C(OC2C(N)CC(N)C(OC3OCC(C)(O)C(NC)C3O)C2O)O1` (centres unmarked) [gentamicin]: the “day on which resistance was demonstrated” value (sequential culturing over 25 days) is on record as “fifth”. The “fold increase of MIC value” (sequential culturing, by the 23rd day) amounted to 64 fold.
